Measured values: patent US20110283604A1, “BIODEGRADATION OF RENEWABLE HYDROCARBON FUEL BLENDS” (BUTAMAX(TM) ADVANCED BIOFUELS LLC, priority 2010, published 2011)

Columns and labels:
[1] = test system: soil-groundwater slurries; assay: Aerobic microcosm biodegradation of BTEX, isobutanol and ethanol
Protocol: Soil and groundwater for laboratory microcosm testing were collected from within Site 60 at Vandenberg Air Force Base, CA. The site has a history of gasoline contamination, but has undergone an extensive cleanup program. Collected groundwater was containerized in sterile stainless steel soda kegs (18.5 L) under nitrogen headspace. […] The core samples in acetate sleeves were capped and sealed in the field to minimize exposure to air, shipped overnight on ice to the laboratory, and stored at 4° C.
Soil was removed from the acetate sleeves in an anaerobic chamber (Coy Laboratory Products, Inc., Grass Lake, Mich.) and the first 10 cm of the core ends that may have been exposed to oxygen were discarded. Collected soil consisted of silty sand with some gravel and larger stones. The soil was passed through a 0.95 cm sieve, homogenized, and then stored in amber glass jars with Teflon®-lined caps at 4° C. until microcosm setup was complete. (NA=Not Analyzed; * SVOC (semi volatile organic compound) detections include 0.008 mg L^−1 phenol and 0.003 mg L^−1 bis(2-ethylhexyl) phthalate; ** standard units).
Final transformation products were not determined. For comparison, one treatment was prepared using ethanol instead of isobutanol. […] Controls were amended with mercuric chloride and formaldehyde. BTEX and alcohol concentrations were selected to represent (approximately) potential groundwater concentrations that would be observed within a source area and in the near downgradient plume. The greater ethanol concentrations relative to the isobutanol concentrations used in this study were intended to reflect effective solubilities of isobutanol and ethanol in groundwater. […] The SET 1 treatments were prepared within 4 days of sample collection whereas SET 2 treatments were prepared after approximately 2 months of soil and groundwater storage.
Microcosms were prepared by placing 40 g of site soil into each of 54 glass serum bottles (approximate volume 160 mL each). BTEX and alcohol (isobutanol or ethanol) were added to the treatment bottles to attain the target concentrations shown in Tables 2A and B. Bottles were filled with groundwater so as to leave 10 mL of headspace. Controls were amended with mercuric chloride (700 mg/L in bottles) to inhibit microbial activity. Controls were subsequently amended with formaldehyde (1% v/v in bottles) after 4 days to limit microbial activity. Treatments were prepared with a minimum of 3 and up to 8 replicates each.
The prepared microcosms were incubated at 15° C. on a rotary shaker operating at 100 rpm. Headspace in each of the bottles was monitored for BTEX and oxygen. Aqueous BTEX concentrations were calculated by applying Henry's Law. Samples of the aqueous phase were analyzed for isobutanol and ethanol, as well as potential isobutanol degradation products (iso-butylaldehyde and iso-butyric acid). The headspace of each bottle was periodically flushed with oxygen gas to maintain aerobic conditions in the bottles. The headspace of each control bottle also was flushed with oxygen to evaluate potential losses of BTEX due to the flushing process.
Headspace gases were analyzed for BTEX by using a Varian CP-3900 gas chromatograph equipped with an FID and a Restek QSPLOT column (30 m length, 0.32 mm diameter) with an injector temperature of 260° C. and a detector temperature of 290° C. Headspace oxygen was analyzed by using a Varian CP-3800 gas chromatograph equipped with a Pulsed Discharge Helium Ionization Detector (PDHID) and both a CP-Molsiene 5A column and a CP-ParaBond Q column (both 10 m length, 0.32 mm diameter), an injector temperature of 210° C., and a detector temperature of 240° C. […] Aqueous alcohol concentrations (as well as iso-butylaldehyde and iso-butyric acid) were measured by first collecting a 130 μL subsample preserved with mercuric chloride.

[2] = Water tolerance and phase separation tests on isobutanol-ethanol-gasoline blends; assay type: physicochemical; settings: E10 gasoline
Protocol: Scoping water tolerance and phase separation tests were conducted on isobutanol-ethanol-gasoline blends at 65° F. […] Concentrations in both the hydrocarbon and aqueous phase were determined by GC.

[3] = Treatment 1 (Low BTEX), aerobic, 15° C.
[4] = Treatment 2 (High BTEX), aerobic
[5] = Treatment 3 (Low BTEX + IBA 68 μM), aerobic
[6] = Treatment 4 (High BTEX + IBA 3,400 μM), SET 1, aerobic
[7] = Treatment 5 (High BTEX + IBA 3,400 μM), SET 2, aerobic
[8] = Treatment 6 (High BTEX + Ethanol 11,000 μM), aerobic
[9] = higher concentration treatments, aerobic (isobutanol: data of Treatments 4 and 5; ethanol treatment)

Row | Compound | Lag [1, 3] | Lag [1, 4] | Lag [1, 5] | Lag [1, 6] | Lag [1, 7] | Lag [1, 8] | observed first-order biodegradation rate constant [1, 9] | effect of increased levels on aqueous phase volume during phase separation ([2]; 1.3% and 2.6% water, FIG. 11) | effect on amount of ethanol extracted into the aqueous phase ([2]; FIG. 12) | rate constant in lower concentration treatment relative to isobutanol or ethanol in higher concentration treatments ([1]; Treatment 3 vs higher concentration treatments, aerobic) | observed first-order biodegradation rate constant ([1]; lower concentration treatment (Treatment 3), aerobic)
1 | c1ccccc1 [Benzene, benzene] | 0 days | 6 days | 0 days | 1 days | 1 days | 1 days | – | – | – | – | –
2 | CCc1ccccc1 [Ethylbenzene, ethylbenzene] | 2 days | 5 days | 1 days | 0 days | 1 days | 1 days | – | – | – | – | –
3 | Cc1ccccc1 [Toluene, toluene] | 0 days | 5 days | 0 days | 5 days | 1 days | 1 days | – | – | – | – | –
4 | CCO [ethanol, reference compound] | – | – | – | – | – | – | 0.074 ± 0.0023 day⁻¹ | – | – | – | –
5 | CC(C)CO [isobutanol] | – | – | – | – | – | – | 0.081 ± 0.0044 day⁻¹ | reduced aqueous phase volume | acts as a co-solvent for ethanol | approximately 3.5 times | 0.28 ± 0.054 day⁻¹
6 | total xylenes | 2 days | 0 days | 1 days | 0 days | 1 days | 1 days | – | – | – | – | –
